Test results taken from patent US5256682A, “Isoxazolylimidazole derivatives, process for their production and their use in pharmaceutical agents” (Schering Aktiengesellschaft, priority 1991, dated 1993).

Experiment: Metabolic stability: % of test substance remaining after incubation with mouse liver homogenate
Type: in vitro ADME
Conditions: amount not catabolized, in % of the zero value; 120 minutes, 37° C., pH 7.3; NMRI mouse liver homogenate; HPLC; read-out: % Radical after incubation with mouse liver homogenate
Protocol: The stability of the compounds was measured as follows:
The test substance (1 μg/50 μl of ethanol) was adjusted with 750 μl of Krebs-Henseleit-Ringer phosphate buffer to pH 7.3 and brought together with 750 μl of a liver homogenate at room temperature and mixed. 250 μl of this batch was removed for zero-point determination and the batch was incubated at 37° C. with continuous movement in a water bath. Aliquot parts of 250 μl are removed after 120 minutes, extracted with 3 ml of diethyl ether after 5 minutes of shaking, then centrifuged for 10 minutes under cooling, frozen, the ether is decanted and dried in a dry nitrogen stream. The residue is dissolved in each case in 200 μl of ethanol and the solution is analyzed with HPLC. The liver used was obtained from NMRI mice and homogenized after removal immediate in 4 parts of a 0.25 molar sucrose solution in a Potter-Elvehjem mixer. The homogenate was then filtered through linen and diluted with the same sucrose solution to 1:10 (weight: volume). Aliquot parts of the solution were stored at -18° C.

remaining at 2 h	SMILES
31%	CCc1nc(-c2ncn(-c3cccc(Oc4ccccc4)c3)c2C)no1 [A, 4-(5-ethyl-1,2,4-oxadiazol-3-yl)-5-methyl-1-(3-phenoxy-phenyl)-imidazole, reference compound]
95%	CCc1cc(-c2ncn(-c3cccc(Oc4ccccc4)c3)c2C)on1 [B, 4-(3-Ethyl-isoxazol-5-yl)-5-methyl-1-(3-phenoxyphenyl)imidazole]
100%	COCc1cc(-c2ncn(-c3cccc(Oc4ccccc4)c3)c2C)on1 [D, 4-(3-Methoxymethyl-isoxazol-5-yl)-5-methyl-1-(3-phenoxyphenyl)-imidazole]

SMILES	remaining at 2 h
CCc1cc(-c2ncn(-c3cccc(Oc4ccccc4)c3)c2C)no1 [C, 4-(5-Ethyl-isoxazol-3-yl)-5-methyl-1-(3-phenoxyphenyl)imidazole]	71%
